Results from patent US20120172361A1, “TRIAZINE DERIVATIVES AND THEIR THERAPEUTICAL APPLICATIONS” (CALIFORNIA CAPITAL EQUITY, LLC, priority 2009, published 2012).

Biological target: T1, Aurora-A(h) (Homo sapiens, UniProt O14965)
T1 construct: purchased Millipore (KinaseProfiler service); also Reaction Biology Corp. (Kinase Hotspot)
T1 sequence (O14965 1-403): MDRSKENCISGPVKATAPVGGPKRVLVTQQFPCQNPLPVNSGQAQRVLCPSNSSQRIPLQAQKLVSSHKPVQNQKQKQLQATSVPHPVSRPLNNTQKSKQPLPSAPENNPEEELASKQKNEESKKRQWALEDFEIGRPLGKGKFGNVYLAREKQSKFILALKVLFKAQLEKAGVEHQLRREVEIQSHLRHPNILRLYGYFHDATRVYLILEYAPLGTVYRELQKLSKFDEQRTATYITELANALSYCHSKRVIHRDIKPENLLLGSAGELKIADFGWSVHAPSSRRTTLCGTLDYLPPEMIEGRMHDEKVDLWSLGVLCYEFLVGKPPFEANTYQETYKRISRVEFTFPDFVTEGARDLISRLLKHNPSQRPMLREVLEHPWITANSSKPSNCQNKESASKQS
Assay: Aurora-A kinase assay (KinaseProfiler Service Assay Protocols, Millipore; also Kinase Hotspot, Reaction Biology Corp.)
Format: biochemical
Details: compound concentration 1 μM
Protocol: This example illustrated Aurora Kinase Assays of selected Compounds from this invention (referred to Daniele Fancelli et al, J. Med. Chem., 2006, 49 (24), pp 7247-7251). The KinaseProfiler™ Service Assay Protocols (Millipore) were used to test the kinase inhibiting activity of novel compounds from this invention. To do this, the buffer composition was as: 20 mM MOPS, 1 mM EDTA, 0.01% Brij-35, 5% Glycerol, 0.1% β-mercaptoethanol, 1 mg/mL BSA. Test compounds were initially dissolved in DMSO at the desired concentration, then serially diluted to the kinase assay buffer. In a final reaction volume of 25 μL, Aurora-A(h) (5-10 mU) is incubated with 8 mM MOPS pH 7.0, 0.2 mM EDTA, 200 μM LRRASLG (Kemptide), 10 mM MgAcetate and [γ33P-ATP]. The reaction was initiated by the addition of the MgATP mix. After incubation for 40 minute at room temperature, the reaction was stopped by addition of 5 μL of a 3% phosphoric acid solution. 10 μL of the reaction was then spotted onto a P30 filtermat and washed three times for 5 minutes in 50 mM phosphoric acid and once in methanol prior to drying and scintillation counting. Wells containing substrate but no kinase and wells containing a phosphopeptide control were used to set 0% and 100% phosphorylation value, respectively.
Also Kinase Hotspot SM kinase assay was used to test the compounds for IC50 or % inhibitions (Reaction Biology Corp.). Inhibitor IC50 values were determined by titration of compound at the optimal kinase concentration (Kinase EC50).

| inhibition at 1 µM | Compound |
| --- | --- |
| > 90% | Cc1cc(Nc2nc(NCCCN3CCOCC3)nc(Sc3ccc(NC(=O)C4CC4)cc3)n2)n[nH]1 [Example 90] |
| > 90% | Cc1cc(Nc2nc(NCCN(C)C)nc(Sc3ccc(NC(=O)C4CC4)cc3)n2)n[nH]1 [Example 91] |
| > 50% | Cc1cc(Nc2nc(Sc3ccc(NC(=O)C4CC4)cc3)nc(N(C)CCN(C)C)n2)n[nH]1 [Example 92] |
| > 90% | CCCCNc1nc(Nc2cc(C)[nH]n2)nc(Sc2ccc(NC(=O)C3CC3)cc2)n1 [Example 93] |
| > 90% | CCN(CC)c1nc(Nc2cc(C)[nH]n2)nc(Sc2ccc(NC(=O)C3CC3)cc2)n1 [Example 94] |
| > 90% | Cc1cc(Nc2nc(Sc3ccc(NC(=O)C4CC4)cc3)nc(N3CCN(CCO)CC3)n2)n[nH]1 [Example 96] |
| > 90% | Cc1cc(Nc2nc(N)nc(Sc3ccc(NC(=O)C4CC4)cc3)n2)n[nH]1 [Example 97] |
| < 50% | CCc1nc(Nc2cc(C)[nH]n2)nc(N2CCN(C)CC2)n1 [Example 103] |
| > 50% | Cc1cc(Nc2nc(Sc3ccc(C(=O)NC4CC4)cc3)nc(N3CCN(C)CC3)n2)n[nH]1 [Example 106] |
| < 50% | CCc1nc(Nc2cc(C)[nH]n2)nc(Sc2ccc(C(=O)NC3CC3)cc2)n1 [Example 107] |
| < 50% | CCC(=O)Nc1ccc(Sc2nc(N3CCN(C)CC3)nc(-n3cc(C)sc3=N)n2)cc1 [Example 109] |
| > 50% | CCC(=O)Nc1ccc(Sc2nc(C3CC3)nc(-n3cc(C)sc3=N)n2)cc1 [Example 110] |
| > 50% | Cc1cn(-c2nc(Sc3ccc(NC(=O)c4ccccc4)cc3)nc(N3CCN(C)CC3)n2)c(=N)s1 [Example 112] |
| > 90% | Cc1cnc(Nc2nc(Sc3ccc(NC(=O)c4ccccc4)cc3)nc(N3CCN(C)CC3)n2)s1 [Example 113] |
| > 90% | CCC(=O)Nc1ccc(Sc2nc(Nc3ncc(C)s3)nc(N3CCN(C)CC3)n2)cc1 [Example 114] |
| > 90% | Cc1cc(Nc2nc(Sc3ccc(C(=O)NC(C)C)cc3)nc(N3CCN(C)CC3)n2)n[nH]1 [Example 115] |
| > 90% | Cc1cc(Nc2nc(Sc3ccc(C(=O)Nc4ccccc4)cc3)nc(N3CCN(C)CC3)n2)n[nH]1 [Example 116] |
| > 90% | Cc1cc(Nc2nc(Sc3ccc(C(=O)NCc4ccc(F)cc4)cc3)nc(N3CCN(C)CC3)n2)n[nH]1 [Example 118] |
| < 50% | Cc1cc(Nc2nc(Sc3ccc(NC(=O)C4CC4)cc3)nc(N3CCN(C)CC3)n2)no1 [Example 120] |
| < 50% | Cc1ccnc(Nc2nc(Sc3ccc(NC(=O)C4CC4)cc3)nc(N3CCN(C)CC3)n2)n1 [Example 121] |
| > 50% | Cc1ccc(Nc2nc(Sc3ccc(NC(=O)C4CC4)cc3)nc(N3CCN(C)CC3)n2)nc1 [Example 122] |
| > 50% | CN1CCN(c2nc(Nc3ccc(Br)cn3)nc(Sc3ccc(NC(=O)C4CC4)cc3)n2)CC1 [Example 123] |
| > 90% | Cc1cc(Nc2nc(Sc3ccc(NC(=O)C4CC4)cc3)nc(N(C)C)n2)n[nH]1 [Example 127] |
